Test results taken from patent US9359281B2, “Enantiomers of 2-hydroxy derivatives of fatty acids” (UNIVERSITAT DE LES ILLES BALEARS, priority 2011, dated 2016).
Several values for one entry are separate records, joined by “and”; a condition that tells them apart may be missing. Identical values can stand only once.

What was measured:
U937 cells = test: Cell growth inhibition, U937; type: cell-based, human; design: key to Effect (anti-proliferation effect): +: inhibition of cell growth; −: absence of effect; conditions: for IC50: U937, sodium salt form
From the text: (§1) At this respect, concentrations which inhibit growth of tumour cells (IC50) are lower for the enantiomer S ([−]) in all studied tumour lines (Table 5). […] In all of the cases, the molecules employed were in the form of sodium salt.

HT29 cells = test: Cell growth inhibition, HT29; type: cell-based, human; design: key to Effect (anti-proliferation effect): +: inhibition of cell growth; −: absence of effect; conditions: for IC50: HT29, sodium salt form
From the text: as §1

[1] = Triglyceride and total cholesterol levels in SHR rats; type: in vivo; conditions: 600 mg/kg every 12 h, orally; for plasmatic TG levels after treatment: 2 weeks, basal 108 mg/dl; for CHOt levels after treatment: 15 days, basal 73 mg/dl
Description: D. Effects on cholesterol and triglyceride levels: SHR rats were treated with 2OHOA racemic (+/−) and its optic isomers [−]2OHOA and [+]2OHOA (600 mg/kg every 12 h, 15 days, orally). […] Values of average±EEM seric levels of lipids expressed as mg/dl (ordinate axis; n=6) are shown.
(§2) What is more, we studied the effect of the isomers above on arterial pressure, body weight, and the level of cholesterol, triglycerides and glycemia (glucose in plasma) in SHR rats SHR (FIGS. 8B, 8C and 8D and 8E). […] Similarly, during 1 and 5 days of treatment, rats treated with the racemic loosed 11 gram of weight (approximately a 3% of their body weight), whereas animals of the group treated with enantiomer [−]2OHOA loosed 21 grams and animals of the group treated with enantiomer [+]2OHOA only loosed 7 grams of weight. On the other hand, a higher effect of enantiomer [+]2OHOA in the reduction of triglyceride (TG) and total cholesterol (CHOt) levels was observed (FIG. 8D) At this respect, plasmatic basal levels of TG in SHR rats are of 108 mg/dl and were reduced to 56 mg/dl after 2 weeks treatment […]. On the other hand, treatment with enantiomer [+]2OHOA inducted a reduction of plasmatic TG levels to 47 mg/dl, whereas enantiomer [−]2OHOA only produced a modest reduction to 81 mg/dl. In parallel, levels of CHOt were reduced from 73 mg/dl to 43 mg/dl (racemic), 36 mg/dl (enantiomer [+]2OHOA) and 59 mg/dl (enantiomer [−]2OHOA), respectively.

U118 cells = test: Levels of SM in cell membranes, U118; type: cell-based, human; design: SM levels in the cell membrane (activation of enzyme EC 2.7.8.27): dose or concentration left out as unconfirmed; conditions: for SM levels in the cell membrane (activation of enzyme EC 2.7.8.27): U118, 24 hours
MRC-5 cells = test: Cell growth inhibition, MRC-5; type: cell-based, human; design: key to Effect (anti-proliferation effect): +: inhibition of cell growth; −: absence of effect; conditions: for IC50: MRC-5 non tumor fibroblast, sodium salt form
From the text: as §1

SH-SY5Y cells = test: Cell growth inhibition, SH-SY5Y; type: cell-based, human; design: key to Effect (anti-proliferation effect): +: inhibition of cell growth; −: absence of effect; conditions: for IC50: SH-SY5Y, sodium salt form
From the text: as §1

U87 cells = test: Cell growth inhibition, U87; type: cell-based, human; design: key to Effect (anti-proliferation effect): +: inhibition of cell growth; −: absence of effect; conditions: for IC50: U87, sodium salt form
From the text: as §1

PC3 cells = test: Cell growth inhibition, PC3; type: cell-based, human; design: key to Effect (anti-proliferation effect): +: inhibition of cell growth; −: absence of effect; conditions: for IC50: PC3, sodium salt form
From the text: as §1

BXPC3 cells = test: Cell growth inhibition, BXPC3; type: cell-based, human; design: key to Effect (anti-proliferation effect): +: inhibition of cell growth; −: absence of effect; conditions: for IC50: BXPC3, sodium salt form
From the text: as §1

IMR90 cells = test: Cell growth inhibition, IMR90; type: cell-based, human; design: key to Effect (anti-proliferation effect): +: inhibition of cell growth; −: absence of effect; conditions: for IC50: IMR90 non tumor fibroblast, sodium salt form
From the text: as §1

A549 cells = test: Cell growth inhibition, A549; type: cell-based, human; design: key to Effect (anti-proliferation effect): +: inhibition of cell growth; −: absence of effect
From the text: as §1

[2] = tested on: human glioma (SF767) cells; test: Volume of human glioma (SF767) tumours in immuno-depressed mice; type: in vivo; conditions: for Effect: variation in the size of the tumour compared with untreated animals: 15 days; for decrease in the volume of the tumour: 200 mg/kg, 15 days orally
From the text: This example recounts the study carried out on immuno-depressed mice infected with human glioma (SF767) cells and treated for 15 days (orally) with the indicated dose (Table 3).

Body weight of SHR rats = type: in vivo; conditions: 600 mg/kg·day, 5 days, orally
Description: C. Effect on body weight: SHR rats were treated with 2OHOA racemic (+/−) and its optic isomers [−]2OHOA and [+]2OHOA (600 mg/kg·day, 5 days, orally). […] Values of average±EEM body weight (abscises axis, n=6) are shown.
as §2

Jurkat cells = test: Cell growth inhibition, Jurkat; type: cell-based, human; design: key to Effect (anti-proliferation effect): +: inhibition of cell growth; −: absence of effect; conditions: for IC50: sodium salt form
From the text: as §1

SF767 cells = test: Cell growth inhibition, SF767; type: cell-based, human; design: key to Effect (anti-proliferation effect): +: inhibition of cell growth; −: absence of effect; conditions: for IC50: SF767, sodium salt form
From the text: as §1

A375 cells = test: Cell growth inhibition, A375; type: cell-based, human; conditions: A375, sodium salt form
From the text: as §1

[3] = tested on: human lung cancer cells (A549); test: Volume of tumours derived from human lung cancer cells (A549) in mice; type: in vivo; conditions: 600 mg/kg·day, 15 days, orally
Description: A. Effect on the volume of tumours derived from human lung cancer cells (A549): immuno-depressed mice were infected with human lung cancer cells and 7 days later (when the tumours were observable), treatments started with vehicle (control), 2OHOA racemic (+/−), and optic isomers [−]2OHOA and [+]2OHOA (600 mg/kg·day, 15 days, orally). The bars correspond to values of an average±EEM (n=3-5) of the increase in volume (mm^3) of the tumours (n=6).
On the other hand, we investigated the antitumoral activity of these compounds in different types of human cancer (see Tables 2, 4 and 5). […] Furthermore, the activity of these enantiomers was proven against a vast variety of human cancers of different nature, since it can be stated that enantiomers [−] of 2-hydroxylated fatty acids have a high potency in the treatment of any type of cancer.

| SMILES | IC50 (U937 cells) | IC50 (HT29 cells) | plasmatic TG levels after treatment ([1]; 600 mg/kg) | CHOt levels after treatment ([1]; 600 mg/kg) | SM levels in the cell membrane (activation of enzyme EC 2.7.8.27) (U118 cells) | IC50 (MRC-5 cells) | IC50 (SH-SY5Y cells) | IC50 (U87 cells) | IC50 (PC3 cells) | IC50 (BXPC3 cells) | IC50 (IMR90 cells) | IC50 (A549 cells; A549, sodium salt form) | Effect: variation in the size of the tumour compared with untreated animals ([2]; 50 mg/kg orally) | Effect: variation in the size of the tumour compared with untreated animals ([2]; 75 mg/kg orally) | Effect: variation in the size of the tumour compared with untreated animals ([2]; 100 mg/kg orally) | Effect: variation in the size of the tumour compared with untreated animals ([2]; 150 mg/kg orally) | Effect: variation in the size of the tumour compared with untreated animals ([2]; 200 mg/kg orally) | Effect: variation in the size of the tumour compared with untreated animals ([2]; 400 mg/kg orally) | Effect: variation in the size of the tumour compared with untreated animals ([2]; 600 mg/kg orally) | volume of tumours derived from A549 cells [3] | also measured |
| --- | --- | --- | --- | --- | --- | --- | --- | --- | --- | --- | --- | --- | --- | --- | --- | --- | --- | --- | --- | --- | --- |
| CCCCCCCC/C=C\CCCCCCC(O)C(=O)O (stereo not drawn) [[−]2OHOA] [[−] HOOC—HOCH—(CH2)6—(CH═CH—CH2)1—(CH2)6—CH3] | 136 µM | 159 µM | 81 mg/dL | 59 mg/dL | even greater increases in SM levels | > 5000 µM | 64.4 µM | 53.5 µM | 87 µM | 61.8 µM | > 5000 µM | 52.6 µM | −35% | −54% | −65% | −78% | −89% | −91% | −86% | significant reductions compared with all the other treatments | Effect (anti-proliferation effect) (U937 cells; U937): +; Effect (anti-proliferation effect) (HT29 cells; HT29): +; % SM after treatment (U118 cells; U118, 200 μM [−]2OHOA): 28%; Effect (anti-proliferation effect) (MRC-5 cells; MRC-5): −; Effect (anti-proliferation effect) (SH-SY5Y cells; SH-SYSY): +; Effect (anti-proliferation effect) (U87 cells; U87): +; Effect (anti-proliferation effect) (PC3 cells; PC3): +; Effect (anti-proliferation effect) (BXPC3 cells; BXPC3): +; Effect (anti-proliferation effect) (IMR90 cells; IMR90): −; Effect (anti-proliferation effect) (A549 cells; A549): +; IC50 (A549 cells; A549, sodium salt form, listed as [−]2OH18:1): 52.6 ± 9.5 µM; decrease in the volume of the tumour [2]: 89%; loss of body weight (Body weight of SHR rats; 600 mg/kg): 21 gram; Effect (anti-proliferation effect) (Jurkat cells): +; IC50 (Jurkat cells): 35.7 µM; Effect (anti-proliferation effect) (SF767 cells; SF767): +; IC50 (SF767 cells): 102 µM; IC50 (A375 cells): 163 µM |
| CCCCCCCC/C=C\CCCCCCC(O)C(=O)O (stereo not drawn) [[+]2OHOA] [[+]HOOC—HOCH—(CH2)6—(CH═CH—CH2)1—(CH2)6—CH3] | 214 µM | 342 µM | 56 mg/dL and 47 mg/dL | 36 mg/dL | decrease in the level of SM in membranes | > 5000 µM | 193 µM | 148 µM | 233 µM | 154 µM | > 5000 µM | 133 µM | −2% | +7% | −3% | +1% | −4% | −2% | +3% | no significant changes in the volume of tumours | IC50 (A549 cells; A549, sodium salt form, listed as [+]2OH18:1): 133 ± 9.8 µM; activity on tumour volume after 15 days of treatment ([2]; indicated doses (50-600 mg/kg), orally): showed no activity; loss of body weight (Body weight of SHR rats; 600 mg/kg): 7 gram; IC50 (Jurkat cells): 97.2 µM; IC50 (SF767 cells): 304 µM; IC50 (A375 cells): 407 µM |
| CCCCCCCC/C=C\CCCCCCC(O)C(=O)O (racemic) [2OHOA, 2-hydroxyoleic acid] |  |  |  |  | significant increases in SM levels |  |  |  |  |  |  |  | +2% | −7% | −8% | −17% | −23% | −39% | −37% | significant reductions | IC50 (U937 cells; Homo sapiens, U-937): 183 µM; IC50 (HT29 cells; Homo sapiens, HT-29): 225 µM; CHOt levels after treatment [1]: 43 mg/dL; synthesis of SM (U118 cells; U118, 200 μM, 24 hours): significant increase; IC50 (MRC-5 cells; Homo sapiens, MRC5): > 5000 µM; IC50 (SH-SY5Y cells; Homo sapiens): 119 µM; IC50 (U87 cells; Homo sapiens, U-87 MG): 81.6 µM; IC50 (PC3 cells; Homo sapiens, PC-3): 138 µM; IC50 (BXPC3 cells; Homo sapiens, BXPC-3): 98.3 µM; IC50 (IMR90 cells; Homo sapiens, IMR-90): > 5000 µM; IC50 (A549 cells; Homo sapiens, A549, A549, sodium salt form): 94.1 ± 8.8 µM; decrease in the volume of the tumour [2]: 23%; loss of body weight (Body weight of SHR rats): 11 gram; loss of body weight as share of body weight (Body weight of SHR rats): ~3%; IC50 (Jurkat cells; Homo sapiens): 62.9 µM; IC50 (SF767 cells; Homo sapiens): 215 µM; IC50 (A375 cells; Homo sapiens, A-375): 273 µM |
